Measurements: patent US20040132740A1, “Novel antibiotics” (priority 2001, published 2004)
Structures can show the parent of a compound that is named as a salt.

Legend:
[1] = system: E. coli; test: Minimum inhibitory concentration in vitro against E. coli; format: cell-based; conditions: Escherichia coli, aqueous solution of hydrochloride salts
Procedure: (§1) An aqueous solution of the salts of the compounds reported in this invention namely compound (A) and compound (B) were tested in vitro against E. coli and St. aureus according to an established clinical procedure (Mackie and McCartney: Practical Medical Microbiology, Churchill livingstone, 1996, 14th edition, p159-163).

[2] = system: St. aureus; test: Minimum inhibitory concentration in vitro against St. aureus; format: cell-based; conditions: Staphylococcus aureus, aqueous solution of hydrochloride salts
Procedure: as §1

[3] = system: Staphylococcus aureus; test: MIC / effective maintenance dose to control bacterial re-growth, clinically isolated Staphylococcus aureus; format: cell-based; conditions: clinically isolated microorganism, read-out: effective maintenance dose necessary to control bacterial re-growth (MIC), Staphylococcus aureus
Procedure: (§2) The minimum inhibitory concentration (MIC) of compound (A) and ciprofloxacin were also studied using clinically isolated microorganism staphylococcus aureus and pseudomotias aeruginose.
(§3) The experimental work was carried out according to an established clinical procedure […] (Mackie and McCartney, ibid).

[4] = system: Pseudomones aeruginose; test: MIC / effective maintenance dose to control bacterial re-growth, clinically isolated Pseudomones aeruginose; format: cell-based; conditions: clinically isolated microorganism
Procedure: as §2, §3

[5] = LD50 on mice; conditions: mouse, in vivo
[6] = system: gram-positive and gram-negative organisms; test: Antibacterial effect compared with ciprofloxacin hydrochloride under the same experimental conditions; format: cell-based, E. coli and St. aureus; conditions: hydrochloride salt
Procedure: as §1

[7] = system: bacteria; test: Further incubation of the positive samples for up to 16 hours (bacterial re-growth); format: cell-based
Procedure: as §3

Compound | melting point | MIC [1] | MIC [2] | MIC [3] | effective maintenance dose necessary to control bacterial re-growth (MIC), Pseudomones aeruginose [4] | LD50 [5] | antibacterial effect towards gram-positive and gram-negative organisms [6] | sensitivity and effectiveness as antibacterial agent ([7]; compared with ciprofloxacin hydrochloride) | bacterial growth after further incubation of the positive samples ([7]; incubation up to 16 hours, dose of 0.0 μg/ml printed for compound (A))
CN1CCN(c2cc3c(cc2F)c(=O)ccn3C2CC2)CC1 (as salt: hydrochloride) [Compound (B), 1-cyclopropyl-6-fluoro-1,4-dihydro-4-oxo-7-(1-(4-methyl)piperazinyl)-quinoline] | 238 to 240 °C |  |  |  |  |  |  |  | 
O=c1ccn(C2CC2)c2cc(N3CCNCC3)c(F)cc12 [Compound (A) HCl salt, 1-cyclopropyl-6-fluoro-1,4-dihydro-4-oxo-7(1-piperazinyl)-quinoline] |  | 0.01 µg/mL | 0.08 µg/mL | 0.06 µg/mL | 0.05 µg/mL | 28 mg/kg | better antibacterial effect | more sensitive and effective | very slow bacterial growth
CN1CCN(c2cc3c(cc2F)c(=O)ccn3C2CC2)CC1 [Compound (B), 1-cyclopropyl-6-fluoro-1,4-dihydro-4-oxo-7-(1-(4-methyl)piperazinyl)-quinoline] |  |  |  |  |  |  | better antibacterial effect |  | 
